Results from patent US20160264616A1, “THERAPEUTIC COMPOUNDS AND METHODS” (priority 2015, published 2016).
Entries after “also recorded” stand apart in the source; their conditions may differ. Like-named read-outs stand apart in the source and are kept apart here.

Columns and labels:
RGS17 = molecular target: T1, RGS17 (Homo sapiens, UniProt Q9UGC6); assay: Differential scanning fluorimetry (DSF) with RGS17; assay type: binding; conditions: 50 μM compound; for effect on RGS17 thermal stability (DSF): versus DMSO
T1 construct: This is the same RGS17 construct used in the high throughput screening campaign that is fully active despite the N-terminal truncation; made in house
T1 sequence (Q9UGC6 84-200 limits assumed): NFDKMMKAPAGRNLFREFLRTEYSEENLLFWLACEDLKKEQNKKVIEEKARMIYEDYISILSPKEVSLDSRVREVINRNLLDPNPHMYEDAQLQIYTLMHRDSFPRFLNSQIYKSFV
Description: Further evaluation of the compounds designated UI-5, UI-1590, UI-1907 and UI-1956 was conducted using Differential Scanning Fluorimetry (DSF). This method allows for the rapid measurement of protein stability based on the melting temperature (Tm) of the target protein that is bound by ligand. A shift of Tm indicates a change in protein stability to melting due to stabilization added by the small molecule binding to the target protein. The four compounds were incubated at 50 μM with RGS17 or Gαo in the presence of Sypro Orange. In aqueous solution the fluorescence emission from the dye is very weak. However, when the dye binds to hydrophobic regions of a protein a significant increase in florescence intensity is observed intensity (20). The hydrophobic parts of a native, fully folded, protein in solution are generally buried within the protein and therefore not accessible to the dye resulting in little fluorescence emission. When the protein unfolds the dye molecules can bind to the exposed hydrophobic regions of the proteins, resulting in increased fluorescence. […] UI-5, UI-1590 and UI-1956 shifted RGS17's Tm by 2.1° C., 1.4° C. and 1.0° C., respectively (FIG. 4B). These three compounds were further characterized for activity against RGS17.
Differential scanning fluorimetry experiments were carried out using white 384-well μltraAMP PCR plates (Sorenson BioSciences; Salt Lake City, Utah). All experiments were carried out as previously described by Phillips and Hernandez de la Pena.(55) In brief, a 1:2000 dilution of Sypro Orange was made by adding 1 μL of Sypro Orange to 2 mL of PBS at pH 7.5. First, 1.2 mg/mL protein was incubated with 50 μM of each compound at room temperature for 15 min in a 10 μL volume. Upon completion of the incubation, 110 μL of the Sypro Orange-PBS solution was added to each compound/protein mixture. This yielded a final volume of 120 μL containing 0.1 mg/mL protein. Finally, 20 μL of the Sypro Orange/compound/protein mix for each compound and RGS17 or Gαo proteins was added to four wells of the 384-well plate. The experiment was run on the Roche LightCycler 480 (Roche, Switzerland) using a two-step method. Starting with a 25° C. baseline step and a second step with a target temperature of 95° C. with continuous acquisition and set acquisition rate of 3 per ° C. All data was collected using the Roche LightCycler data acquisition ability and analyzed with Graphpad Prism 6.0, using first and second derivatives of the fluorescent melting curves.

[1] = molecular target: T2, Gαo:RGS17 protein:protein interaction (Homo sapiens, UniProt Q9UGC6); assay: AlphaScreen Gαo:RGS17 protein:protein interaction assay (HTS and dose-response); assay type: binding; conditions: for inhibition of the interaction of RGS17 with Gαo: AlphaScreen dose-response, n=3 in triplicate; for inhibition at 100 µM: read-out: inhibition of the AlphaScreen assay
T2 construct: This is the same RGS17 construct used in the high throughput screening campaign that is fully active despite the N-terminal truncation; made in house; host or cells: BL21 (DE3) E. coli for Gαo
T2 sequence (Q9UGC6 84-200 limits assumed): T1 sequence (Q9UGC6 84-200 limits assumed)
Description: The primary biochemical screen was designed to identify compounds that function as inhibitors of the Gαo:RGS17 ppi. This was accomplished by miniaturizing our previously published HTS paradigm in a 1536-well format (17). […] We interrogated the 2320 compound containing MicroSource […] Diversity library (Discovery Systems, Inc. Gaylordsville, Conn.) (FIG. 3).
In total, 2,320 compounds from the MicroSource […] chemical library were screened at a concentration of 40 μM. Two 1536-well plates containing 1,280 compounds and 128 wells of DMSO controls were used. RGS17-anti-GST and Gαo-biotin-streptavidin beads were prepared as previously described. In brief, 100 μg (20 μL) of beads were coupled to 20 ng (10 nM) of each binding partner (Gαo:RGS17) and incubated for 30 min on ice. Then, 4.5 μL of RGS17-anti-GST beads were added using a FlexDrop IV (PerkinElmer, Waltham, Mass.) and incubated for 10 min with compound while the Gαo-biotin-streptavidin beads were incubated with AMF. After incubation, 4.5 μL of the Gαo-biotin-streptavidin bead/protein mixture was added to compound containing wells and incubated on ice for 1.25 hours and read at room temperature using the EnVision plate reader with monochromators.
Experiments were carried out similarly to the high-throughput AlphaScreen assay except this was completed using Corning 384-well white flat bottom plates and the final total volume was 60 μL, with 20 µL of Gαo-biotin-streptavidin and RGS17-anti-GST beads at a final concentration of 10 nM. Then, 20 μL of compounds in a half log dilution series to yield a final range from 1 nM to 100 μM was added to RGS17-anti-GST beads and incubated for 10 min in the dark on ice. Next, 20 μL of Gαo-biotin-streptavidin beads were then added in the presence of AMF and GDP. Negative controls were determined in the absence of AMF and compound. Maximum binding was determined in the absence of compounds but in the presence of AMF and GDP.

| Structure (SMILES) | shift of RGS17 Tm (RGS17) | effect on RGS17 thermal stability (DSF) (RGS17) | inhibition of the interaction of RGS17 with Gαo [1] | inhibition at 100 µM [1] | inhibition at 100 µM ([1]; 100 μM compound, from dose-response experiments) |
| --- | --- | --- | --- | --- | --- |
| C[n+]1cc2c3c(ccc2c2ccc4cc5c(cc4c21)OCO5)OCO3 [UI-5] | 2.1 °C | stabilize RGS17 against thermal denaturing | dose dependent manner | > 25% |  |
| CC1=C(O)C(=O)C=C2C1=CC=C1[C@@]2(C)CC[C@@]2(C)[C@@H]3C[C@](C)(C(=O)O)CC[C@]3(C)CC[C@]12C [UI-1590] | 1.4 °C | stabilize RGS17 against thermal denaturing | dose dependent manner | > 25% |  |
| CC(C)=CCC[C@]1(C)C=Cc2c(O)c3c(c(CC=C(C)C)c2O1)O[C@]12C(=C[C@@H]4C[C@H]1C(C)(C)O[C@@]2(C/C=C(/C)C(=O)O)C4=O)C3=O [UI-1907] |  | alter the thermal stability of both RGS17 and Gαo; also recorded: bind both the RGS and G protein subunit in a non-specific manner | dose dependent manner | > 25% |  |
| O=c1c(-c2cc(O)c(O)c(O)c2)coc2cc(O)c(O)c(O)c12 [UI-1956, 5,6,7-trihydroxy-3-(3,4,5-trihydroxyphenyl)-4H-chromen-4-one] | 1.0 °C | stabilize RGS17 against thermal denaturing | dose dependent manner |  | > 25% |
